Broadly, the Ki is a measure of affinity in units of concentration, obtained from inhibition or displacement. Higher therefore signals a looser hold on the target.

In assay [1] the target is 5-hydroxytryptamine receptor 7 (Homo sapiens, UniProt P34969). Description: Radioligand Binding Assay. As to the method:
(§1) 1H nuclear magnetic resonance (NMR) and 13C NMR spectra were recorded on a Bruker Avance DPX250 spectrometer (250.131 MHz), in CDCl3 and using tetramethylsilane asinternal standard; multiplicities were determined by the DEPT 135 sequence, and chemical shifts are reported in parts per million (ppm). Coupling constants are reported in units of hertz (Hz) if applicable. Infrared (IR) spectra were recorded on a PerkinElmer Paragon 1000 PC Fourier transform infrared (FTIR) spectrometer using NaCl films or KBr pellets. Mass spectra (MS) were recorded on a PerkinElmerSCIEX AOI 300 spectrometer. Flash chromatography was performed on Merck […] (230-400 mesh) silica gel under nitrogen pressure. Thin layer chromatography (TLC)was carried out on Merck silica gel 60 F254 precoated plates. Visualization was made with ultraviolet light at 254 nm.

Assay [2] deals with T1, 5-hydroxytryptamine receptor 1A (Rattus norvegicus, UniProt P19327).
T1 sequence (P19327 whole entry): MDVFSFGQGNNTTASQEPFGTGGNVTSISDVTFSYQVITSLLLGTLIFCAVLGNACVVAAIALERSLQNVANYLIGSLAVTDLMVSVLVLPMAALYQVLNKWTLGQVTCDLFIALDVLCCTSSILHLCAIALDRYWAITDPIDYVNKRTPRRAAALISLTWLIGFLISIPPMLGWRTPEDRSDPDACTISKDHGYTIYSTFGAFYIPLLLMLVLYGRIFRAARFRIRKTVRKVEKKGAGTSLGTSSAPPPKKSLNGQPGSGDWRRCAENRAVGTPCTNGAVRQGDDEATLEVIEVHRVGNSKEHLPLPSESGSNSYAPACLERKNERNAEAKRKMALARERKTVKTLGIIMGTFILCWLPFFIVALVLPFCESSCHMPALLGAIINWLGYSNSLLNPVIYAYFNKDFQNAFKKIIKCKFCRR
Nature of the assay: Radioligand Binding Assay. As to the method:
as §1

Bounds are passed on as bounds.

5-hydroxytryptamine receptor 7, sequence (P34969 whole entry): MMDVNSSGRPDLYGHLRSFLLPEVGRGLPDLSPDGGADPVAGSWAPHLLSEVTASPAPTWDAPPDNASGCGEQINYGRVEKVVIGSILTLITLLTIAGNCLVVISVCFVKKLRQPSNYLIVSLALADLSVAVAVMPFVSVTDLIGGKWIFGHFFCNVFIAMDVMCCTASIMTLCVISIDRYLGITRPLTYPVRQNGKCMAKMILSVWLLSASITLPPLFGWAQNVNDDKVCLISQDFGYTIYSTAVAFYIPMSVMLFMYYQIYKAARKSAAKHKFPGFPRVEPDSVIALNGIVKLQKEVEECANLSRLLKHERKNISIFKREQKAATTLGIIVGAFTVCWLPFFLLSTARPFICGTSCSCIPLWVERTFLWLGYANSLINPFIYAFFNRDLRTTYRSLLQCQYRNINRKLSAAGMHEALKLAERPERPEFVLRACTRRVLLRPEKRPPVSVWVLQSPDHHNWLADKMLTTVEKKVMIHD

In the case of `O=c1[nH]c2ccccc2n1CCN1CCCN2CCCCC2C1` (stereo unspecified) [1-[2-(Octahydropyrido[1,2-a][1,4]diazepin-2-yl)ethyl]-1,3-dihydrobenzo-imidazol-2-one (8)], affinity in assay [1] was put at a Ki of 23.6 µM. Turning to `c1cnc2c(c1)ccn2CCN1CCCN2CCCCC2C1` (stereo unspecified) [2-(2-Pyrrolo[2,3-b]pyridin-1-ylethyl)decahydropyrido[1,2-a][1,4]diazepine (5)], the Ki in assay [2] was 24.5 µM; in assay [1], 14 µM. In the same order, the values of `Brc1ccc2ccn(CCN3CCCN4CCCCC4C3)c2n1` (stereo unspecified) [2-[2-(6-Bromopyrrolo[2,3-b]pyridin-1-yl)ethyl]decahydropyrido[1,2-a][1,4]diazepine (10)] are 14.9 µM and 0.492 µM. In the same order, the values of `Clc1ccc2ccn(CCN3CCCN4CCCCC4C3)c2n1` (stereo unspecified) [2-[2-(6-Chloropyrrolo[2,3-b]pyridin-1-yl)ethyl]decahydropyrido[1,2-a][1,4]diazepine (11)] are 15 µM and 0.16 µM. In the same order, the values of `Clc1nccc2ccn(CCN3CCCN4CCCCC4C3)c12` (stereo unspecified) [2-[2-(7-Chloropyrrolo[2,3-c]pyridin-1-yl)ethyl]decahydropyrido[1,2-a][1,4]diazepine (6)] are 16 µM and 5.31 µM. For `c1cc2ccn(CCN3CCCN4CCCCC4C3)c2cn1` (stereo unspecified) [2-[(2-Pyrrolo[2,3-c]pyridin-1-yl)ethyl]decahydropyrido[1,2-a][1,4]diazepine (7)], the Ki in assay [2] and in assay [1] was greater than 10 µM throughout.

Source of the values: BindingDB's records for doi:10.3109/14756360903179393 (University of Orleans, 2010).
